The source of these data is patent US20250270227A1, “CAMPTOTHECIN DERIVATIVE, AND PHARMACEUTICAL COMPOSITION AND USE THEREOF” (SIMCERE ZAIMING PHARMACEUTICAL CO., LTD., priority 2021, published 2025).

Holding throughout (test): Test 1 of anti-proliferative activity against tumor cells (Cell-Titer Glo)
Holding throughout (type): cell-based

Assay [1] relates to Human colorectal cancer cell line HCT116. Here is the method: (§1) Cell culture: HCT116 cells and SKBR3 cells were cultured in McCoy's 5a medium containing 10% fetal bovine serum+1% penicillin-streptomycin at 37° C. and 5% CO2, and OVCAR3 cells were cultured in 1640 medium containing 20% fetal bovine serum+2 μg/mL bovine insulin+1% penicillin-streptomycin at 37° C. and 5% CO2. Cells in logarithmic growth phase were suitable for the experiment.
(§2) Detection of cell proliferation activity: The inhibitory activity of the compounds on the proliferation of the three cell lines HCT116, SKBR3 and OVCAR3 was detected using Cell-Titer Glo reagent. HCT116 cells (1500 cells per well), SKBR3 cells (3000 cells per well) and OVCAR3 cells (5000 cells per well) were seeded in 96-well plates and cultured at 37° C. and 5% CO2 for 24 h. The solution of the compound to be tested (the compound was dissolved in DMSO with the concentration of the compound being 1 mM, then the compound was diluted to 3 μM with DMSO, with 3-fold dilution and a total of 9 concentrations, and 10 μL of the prepared compound solution was transferred to a 96-well plate with the final concentration of 0-300 nM) was added. The cells were placed at 37° C. and 5% CO2 for further culture. HCT116 cells were cultured for 3 days, and SKBR3 cells and OVCAR3 cells were cultured for 5 days. The cell viability was detected by adding Cell-Titer Glo reagent.
(§3) Additionally, a negative control group and a positive control group were provided as Bottom and Top, respectively. In the negative control group, the cells were not added, only the same volume of medium was added, and other operations were consistent with those in the experimental group; in the positive control group, the test compound was not added, only the same volume of DMSO was added, and other operations were consistent with those in the experimental group.
(§4) Data analysis: The % compound inhibition was calculated, and fitting was performed to obtain IC50 of the compound.
(§5) % Compound inhibition=1−100%*(Signal−Bottom)/(Top−Bottom).
(§6) Signal represents the signal value of the experimental group, Bottom represents the average signal value of the negative control group, and Top represents the average signal value of the positive control group.

Assay [2] has as its system human breast cancer cell line SKBR3. Here is the method:
as §1, §2, §3, §4, §5, §6

Assay [3] relates to human ovarian cancer cell line OVCAR3. Here is the method: as §1, §2, §3, §4, §5, §6
Where [4] appears, read: Homo sapiens, HCT-116, 72 h, read-out: HCT116 Anti-proliferative activity IC50 (nM), HCT116 cells, cultured 3 days with compound, Cell-Titer Glo.
Where [5] appears, read: Homo sapiens, SK-BR-3, 120 h, read-out: SKBR3 Anti-proliferative activity IC50 (nM), SKBR3 cells, cultured 5 days with compound, Cell-Titer Glo.
Setting [6] is: Homo sapiens, OVCAR-3, 120 h, read-out: OVCAR3 Anti-proliferative activity IC50 (nM).

Read-outs that look alike come from different tables or passages of the source.

`CC[C@@]1(O)C(=O)OCc2c1cc1n(c2=O)Cc2c-1nc1cc(F)c(Cl)c(F)c1c2CNC(=O)C(O)C1CC1` (single isomer, unassigned) [Compound 23-P2]: the IC50 in assay [1] (HCT116 cells, cultured 3 days with compound, Cell-Titer Glo, read-out: HCT116 Anti-proliferative activity IC50) was 9.5 nM; in assay [2] (SKBR3 cells, cultured 5 days with compound, Cell-Titer Glo, read-out: SKBR3 Anti-proliferative activity IC50) it was 4.5 nM; in assay [3] (OVCAR3 cells, cultured 5 days with compound, Cell-Titer Glo, read-out: OVCAR3 Anti-proliferative activity IC50), 1.5 nM.
In the case of `CC[C@@]1(O)C(=O)OCc2c1cc1n(c2=O)Cc2c-1nc1cc(Cl)c(C)cc1c2CNC(=O)CO` [Compound 6, (S)-N-((8-chloro-4-ethyl-4-hydroxy-9-methyl-3,14-dioxo-3,4, 12,14-tetrahydro-1H-pyrano[3′,4′:6,7]indolizino[1,2-b]quinolin-11-yl)methyl)-2-hydroxyacetamide], the half-maximal inhibitory concentration (IC50) amounted to 12.6 nM in assay [1] (setting [4]), 4.8 nM in assay [2] (setting [5]) and 2.1 nM in assay [3] (setting [6]).
On to `CC[C@@]1(O)C(=O)OCc2c1cc1n(c2=O)Cc2c-1nc1ccc3c(c1c2CNC(=O)C(O)C1CC1)CCC3` (stereo partly drawn) [Compound 13, 2-cyclopropyl-N-(((S)-8-ethyl-8-hydroxy-9,12-dioxo-2,3,8,9, 12,14-hexahydro-1H,11H-cyclopentadieno[f]pyrano[3′,4′:6,7]indolizino [1,2-b]quinolin-15-yl)methyl)-2-hydroxyacetamide], for which the IC50 in assay [1] (setting [4]) worked out at 8 nM; in assay [3] (setting [6]), 0.7 nM.
Turning to `CC[C@@]1(O)C(=O)OCc2c1cc1n(c2=O)Cc2c-1nc1cc(Cl)c(C)cc1c2CNC(=O)C(O)C(C)C` (stereo partly drawn) [Compound 18, N-(((S)-8-chloro-4-ethyl-4-hydroxy-9-methyl-3,14-dioxo-3,4, 12,14-tetrahydro-1H-pyrano[3′,4′:6,7]indolizino[1,2-b]quinolin-11-yl)methyl)-2-hydroxy-3-methylbutanamide], the IC50 is 10.5 nM in assay [1] (setting [4]) and 5.1 nM in assay [2] (setting [5]).
For `CC[C@@]1(O)C(=O)OCc2c1cc1n(c2=O)Cc2c-1nc1cc(F)c(C)cc1c2CNC1(CO)CC1` [Compound 19, (S)-4-ethyl-8-fluoro-4-hydroxy-11-(((1-(hydroxymethyl)cyclopropyl)amino)methyl)-9-methyl-1,12-dihydro-14H-pyrano[3′,4′:6,7]indolizino[1,2-b]quinoline-3,14(4H)-dione], in that order: 5 nM and 4 nM.
Take `CC[C@@]1(O)C(=O)OCc2c1cc1n(c2=O)Cc2c-1nc1ccc3occc3c1c2CNC(=O)CO` [Compound 20, (S)-N-((8-ethyl-8-hydroxy-9,12-dioxo-8,9,12,14-tetrahydro-11H-furo[3,2-f]pyrano[3′,4′:6,7]indolizino[1,2-b]quinolin-15-yl)methyl)-2-hydroxyacetamide]: the values for the IC50 in assay [1] (setting [4]) and in assay [2] (setting [5]) were 20.7 nM and 10.5 nM, respectively.
Consider `CC[C@@]1(O)C(=O)OCc2c1cc1n(c2=O)Cc2c-1nc1cc(F)c(Cl)c(F)c1c2CNC(=O)CO` [Compound 21, (S)-N-((9-chloro-4-ethyl-8,10-difluoro-4-hydroxy-3,14-dioxo-3,4,12,14-tetrahydro-1H-pyrano[3′,4′:6,7]indolizino[1,2-b]quinolin-11-yl)methyl)-2-hydroxyacetamide], for which the concentration for half-maximal inhibition (IC50) in assay [1] (setting [4]) came out at 7.1 nM; in assay [2] (setting [5]) it was 4 nM; in assay [3] (setting [6]) it was 1.7 nM.
In the same order, the values of `CC[C@@]1(O)C(=O)OCc2c1cc1n(c2=O)Cc2c-1nc1cc(F)c(Cl)c(F)c1c2CNC(=O)C(C)(C)O` [Compound 22, (S)-N-((9-chloro-4-ethyl-8,10-difluoro-4-hydroxy-3,14-dioxo-3,4,12,14-tetrahydro-1H-pyrano[3′,4′:6,7]indolizino[1,2-b]quinolin-11-yl)methyl)-2-hydroxy-2-methylpropanamide] are 4 nM, 3.5 nM and 1.4 nM.
With `CC[C@@]1(O)C(=O)OCc2c1cc1n(c2=O)Cc2c-1nc1cc(F)c(Cl)c(F)c1c2CNC(=O)C(O)C1CC1` (stereo partly drawn) [Compound 23, N-(((S)-9-chloro-4-ethyl-8,10-difluoro-4-hydroxy-3,14-dioxo-3,4,12,14-tetrahydro-1H-pyrano[3′,4′:6,7]indolizino[1,2-b]quinolin-11-yl)methyl)-2-cyclopropyl-2-hydroxyacetamide], the IC50 in assay [1] (read-out: HCT116 Anti-proliferative activity IC50, HCT116 cells, cultured 3 days with compound, Cell-Titer Glo) came to 5.6 nM; in assay [2] (read-out: SKBR3 Anti-proliferative activity IC50, SKBR3 cells, cultured 5 days with compound, Cell-Titer Glo) it was 5.3 nM; in assay [3] (setting [6]) it was 3.9 nM.
On to `CC[C@@]1(O)C(=O)OCc2c1cc1n(c2=O)Cc2c-1nc1cc(F)c(Cl)c(F)c1c2CNC(=O)C(O)C1CC1` (stereo partly drawn) [Compound 23-P1, N-(((S)-9-chloro-4-ethyl-8,10-difluoro-4-hydroxy-3,14-dioxo-3,4,12,14-tetrahydro-1H-pyrano[3′,4′:6,7]indolizino[1,2-b]quinolin-11-yl)methyl)-2-cyclopropyl-2-hydroxyacetamide], for which the IC50 in assay [1] (Homo sapiens, HCT-116, 72 h, HCT116 cells, cultured 3 days with compound, Cell-Titer Glo, read-out: HCT116 Anti-proliferative activity IC50) was determined as 7.9 nM; in assay [2] (Homo sapiens, SK-BR-3, 120 h, SKBR3 cells, cultured 5 days with compound, Cell-Titer Glo, read-out: SKBR3 Anti-proliferative activity IC50), 5.8 nM; in assay [3] (Homo sapiens, OVCAR-3, 120 h, OVCAR3 cells, cultured 5 days with compound, Cell-Titer Glo, read-out: OVCAR3 Anti-proliferative activity IC50), 1.9 nM.
Consider `CC[C@@]1(O)C(=O)OCc2c1cc1n(c2=O)Cc2c-1nc1cc3c(c(Cl)c1c2CNC(=O)C(O)C1CC1)OCO3` (stereo partly drawn) [Compound 30, N-(((S)-15-chloro-7-ethyl-7-hydroxy-8,11-dioxo-7,8,11,13-tetrahydro-10H-[1,3]dioxolo[4,5-g]pyrano[3′,4′:6,7]indolizino[1,2-b]quinolin-14-yl)methyl)-2-cyclopropyl-2-hydroxyacetamide], for which the IC50 in assay [1] (setting [4]) was 4.6 nM; in assay [3] (setting [6]), 0.4 nM.
In the case of `CC[C@@]1(O)C(=O)OCc2c1cc1n(c2=O)Cc2c-1nc1cc(F)c(Cl)c(F)c1c2CNC(=O)CCO` [Compound 32, (S)-N-((9-chloro-4-ethyl-8,10-difluoro-4-hydroxy-3,14-dioxo-3,4,12,14-tetrahydro-1H-pyrano[3′,4′:6,7]indolizino[1,2-b]quinolin-11-yl)methyl)-3-hydroxypropanamide], the IC50 in assay [1] (setting [4]) turned out to be 9.8 nM; in assay [3] (setting [6]), 1 nM.
For `CC[C@@]1(O)C(=O)OCc2c1cc1n(c2=O)Cc2c-1nc1cc(Cl)c3c(c1c2CNC(=O)CO)CCC3` [Compound 33, (S)-N-((4-chloro-8-ethyl-8-hydroxy-9,12-dioxo-2,3,8,9,12,14-hexahydro-1H,11H-cyclopentadieno[f]pyrano[3′,4′:6,7]indolizino[1,2-b]quinolin-15-yl)methyl)-2-hydroxyacetamide], in that order: 5.5 nM and 0.8 nM.
On to `CC[C@@]1(O)C(=O)OCc2c1cc1n(c2=O)Cc2c-1nc1cc(Cl)c3c(c1c2CNC(=O)C(O)C1CC1)CCC3` (stereo partly drawn) [Compound 34, N-(((S)-4-chloro-8-ethyl-8-hydroxy-9,12-dioxo-2,3,8,9,12,14-hexahydro-1H,11H-cyclopentadieno[f]pyrano[3′,4′:6,7]indolizino[1,2-b]quinolin-15-yl)methyl)-2-cyclopropyl-2-hydroxyacetamide], for which the IC50 in assay [1] (setting [4]) turned out to be 2.3 nM; in assay [3] (setting [6]), 0.6 nM.
As for `CC[C@@]1(O)C(=O)OCc2c1cc1n(c2=O)Cc2c-1nc1cc3c(c(F)c1c2CNC(=O)CO)OCO3` [Compound 38, (S)-N-((7-ethyl-15-fluoro-7-hydroxy-8,11-dioxo-7,8,11,13-tetrahydro-10H-[1,3]dioxolo[4,5-g]pyrano[3′,4′:6,7]indolizino[1,2-b]quinolin-14-yl)methyl)-2-hydroxyacetamide], the 50% inhibitory concentration (IC50) in assay [3] (setting [6]) was 2.9 nM.
On to `CC[C@@]1(O)C(=O)OCc2c1cc1n(c2=O)Cc2c-1nc1cc3c(c(F)c1c2CNC(=O)CN)OCO3` [Compound 40, (S)-2-amino-N-((7-ethyl-15-fluoro-7-hydroxy-8,11-dioxo-7,8,11,13-tetrahydro-10H-[1,3]dioxolo[4,5-g]pyrano[3′,4′:6,7]indolizino[1,2-b]quinolin-14-yl)methyl)acetamide], for which the IC50 in assay [3] (setting [6]) came to 11.3 nM.

For orientation: IC50 means the point on the concentration scale where inhibition reaches its midpoint.
